Experimental data: patent US20060063782A1, “3-Hetero arylmethoxy ! pyridines and their analogues as p38 map kinase inhibitors” (priority 2002, published 2006)
pIC50: −log10 of the molar value.

Biological target: p38 MAP kinase (Homo sapiens, UniProt Q16539)
Test: p38 MAP Kinase Assay (33P incorporation into myelin basic protein, filter plate)
Type: biochemical
Details: MKK6-activated p38, MBP substrate, 50 minutes
Method: The activated p38 is then diluted 1:6 with assay buffer, and 20 μl mixed with 25 μl of MBP mix (300 μl 10×strength assay buffer, 300 μl of 10 mM DTT & 10 mM sodium orthovanadate, 1.7 ml H2O, 50 μCi γ^33P-ATP, 200 μl of myelin basic protein (MBP) (5 mg/ml)) and added to 96 well plates along with 5 μl of various dilutions of the test compound in DMSO (up to 10%). The reaction is allowed to proceed for 50 minutes before being stopped with an excess of ortho-phosphoric acid (30 μl at 2%).
γ^33P-ATP which remains unincorporated into the myelin basic protein is separated from phosphorylated MBP on a Millipore MAPH filter plate. The wells of the MAPH plate are wetted with 0.5% orthophosphoric acid, and then the results of the reaction are filtered with a Millipore vacuum filtration unit through the wells. Following filtration, the residue is washed twice with 200 μl of 0.5% orthophosphoric acid. Once the filters have dried, 25 μl of Microscint 20 scintillant is added, and then counted on a Packard Topcount for 30 seconds.

Chain of p38 MAP kinase (Q16539 whole entry): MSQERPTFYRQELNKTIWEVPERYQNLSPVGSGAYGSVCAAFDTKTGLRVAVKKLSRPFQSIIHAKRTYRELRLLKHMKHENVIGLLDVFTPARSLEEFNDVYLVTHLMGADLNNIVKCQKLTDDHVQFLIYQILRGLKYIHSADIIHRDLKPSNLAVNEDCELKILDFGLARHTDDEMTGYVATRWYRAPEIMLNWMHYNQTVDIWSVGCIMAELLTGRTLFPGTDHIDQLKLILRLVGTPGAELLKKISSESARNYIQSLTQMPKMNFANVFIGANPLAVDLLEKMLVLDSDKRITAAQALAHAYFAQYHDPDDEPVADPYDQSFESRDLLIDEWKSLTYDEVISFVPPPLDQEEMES

pIC50 (Table 1) | pIC50 (Table 2) | SMILES
> 5.70 |  | CC(C)(C)c1cc(NC(=O)Nc2ccc(Cl)c(COc3cccnc3)c2)n(-c2ccccc2)n1 [Compound 64, 1-(5-tert-Butyl-2-phenyl-2H-pyrazol-3-yl)-3-[4-chloro-3-(pyridin-3-yloxymethyl)-phenyl]-urea]
 | > 5.70 | O=C(Nc1cnc(OCc2c(Cl)cccc2Cl)cn1)N1CCOCC1 [Compound 175]
> 4.70 |  | O=C(Nc1ccc(Cl)c(COc2cccnc2)c1)c1ccccc1 [Compound 52, N-[4-Chloro-3-(pyridin-3-yloxymethyl)-phenyl]-benzamide]
 | > 4.70 | CC(C)(C)c1cc(NC(=O)Nc2ccc(F)c(COc3cnccn3)c2)n(-c2nc3ccccc3s2)n1 [Compound 155, 1-(2-Benzothiazol-2-yl-5-tert-butyl-2H-pyrazol-3-yl)-3-[4-fluoro-3-(pyrazin-2-yloxymethyl)-phenyl]-urea]
> 3.00 |  | Nc1ncccc1OCc1cccc(C(=O)NCc2cccc3ccccc23)c1 [Compound 33]
 | > 5.70 | O=C(Nc1ccc(F)c(COc2cnccn2)c1)Nc1cc(C2CCOCC2)nn1-c1ccc(F)cc1 [Compound 165, 1-[2-(4-Fluoro-phenyl)-5-(tetrahydro-pyran-4-yl)-2H-pyrazol-3-yl]-3-[4-fluoro-3-(pyrazin-2-yloxymethyl)-phenyl]-urea]
 | > 5.70 | CC(CO)(CO)NC(=O)c1cnc(OCc2c(Cl)cccc2Cl)cn1 [Compound 137, 5-(2,6-Dichloro-benzyloxy)-pyrazine-2-carboxylic acid (2-hydroxy-1-hydroxymethyl-1-methyl-ethyl)-amide]
 | > 5.70 | CC(C)(C)c1cc(NC(=O)Nc2ccc(F)c(COc3cnccn3)c2)n(-c2ccc(F)cc2F)n1 [Compound 125, 1-[5-tert-Butyl-2-(2,4-difluoro-phenyl)-2H-pyrazol-3-yl]-3-[4-fluoro-3-(pyrazin-2-yloxymethyl)-phenyl]-urea]
 | > 3.00 | Nc1ncc(OCc2cccc3ccccc23)nc1Br [Compound 83]
 | > 3.00 | c1ccc(CNc2cccc(COc3cnccn3)c2)cc1 [Compound 108]
 | > 5.70 | CC(C)(C)c1cc(NC(=O)Nc2ccc(F)c(COc3cnccn3)c2)n(Cc2ccccc2)n1 [Compound 153, 1-(2-Benzyl-5-tert-butyl-2H-pyrazol-3-yl)-3-[4-fluoro-3-(pyrazin-2-yloxymethyl)-phenyl]-urea]
> 3.00 |  | COc1ccccc1COc1cccnc1N [Compound 6, 2-amino-3-(2-methoxybenzyloxy)pyridine]
 | > 5.70 | O=C(Nc1ccc(F)c(COc2cnccn2)c1)Nc1cc(-c2ccc(Cl)cc2)nn1-c1ccc(F)cc1 [Compound 132, 1-[5-(4-Chloro-phenyl)-2-(4-fluoro-phenyl)-2H-pyrazol-3-yl]-3-[4-fluoro-3-(pyrazin-2-yloxymethyl)-phenyl]-urea]
 | > 4.70 | O=C(Nc1ccc(F)c(COc2cnccn2)c1)c1ccc2ccccc2c1 [Compound 131, Naphthalene-2-carboxylic acid [4-fluoro-3-(pyrazin-2-yloxymethyl)-phenyl]-amide]
> 3.70 |  | Cc1cc(C)cc(COc2cccnc2N)c1 [Compound 19]
> 4.00 |  | Cc1ccc2ccccc2c1COc1cccnc1N [Compound 30]
 | > 3.70 | CN1CCC(CC(=O)Nc2cnc(OCc3c(Cl)cccc3Cl)cn2)CC1 [Compound 169]
 | > 5.70 | CC(C)(C)c1cc(NC(=O)Nc2ccc(F)c(COc3cnccn3)c2)n(-c2ccc(S(C)(=O)=O)cc2)n1 [Compound 163, 1-[5-tert-Butyl-2-(4-methanesulfonyl-phenyl)-2H-pyrazol-3-yl]-3-[4-fluoro-3-(pyrazin-2-yloxymethyl)-phenyl]-urea]
 | > 3.00 | CCNC(=O)c1cnc(OCc2c(Cl)cccc2Cl)cn1 [Compound 111, 5-(2,6-Dichloro-benzyloxy)-pyrazine-2-carboxylic acid ethylamide]
 | > 5.70 | O=C(Nc1ccc(F)c(COc2cnccn2)c1)Nc1cc(C2CCCO2)nn1-c1ccc(F)cc1 (stereo not drawn) [Compound 161, 1-[2-(4-Fluoro-phenyl)-5-(tetrahydro-furan-2-yl)-2H-pyrazol-3-yl]-3-[4-fluoro-3-(pyrazin-2-yloxymethyl)-phenyl]-urea]
 | > 4.70 | CN1CCN(CC(=O)Nc2cnc(OCc3c(Cl)cccc3Cl)cn2)CC1 [Compound 170]
 | > 5.70 | CC(C)(C)c1cc(NC(=O)Nc2ccc(F)c(COc3cnccn3)c2)n(-c2ccc(Cl)cc2)n1 [Compound 127, 1-[5-tert-Butyl-2-(4-chloro-phenyl)-2H-pyrazol-3-yl]-3-[4-fluoro-3-(pyrazin-2-yloxymethyl)-phenyl]-urea]
> 3.00 |  | Nc1ncccc1OCn1nnc2ccccc21 [Compound 37]
 | > 3.70 | CC1(C(=O)Nc2cnc(OCc3c(Cl)cccc3Cl)cn2)CC1 [Compound 168]
> 3.70 |  | O=C(Nc1ccc(F)c(COc2cccnc2)c1)c1ccccc1 [Compound 59, N-[4-Fluoro-3-(pyridin-3-yloxymethyl)-phenyl]-benzamide]
> 3.70 |  | O=C(Nc1ccc(Cl)c(COc2cccnc2)c1)c1cccc(F)c1 [Compound 50, N-[4-Chloro-3-(pyridin-3-yloxymethyl)-phenyl]-3-fluoro-benzamide]

pIC50 (Table 1) | pIC50 (Table 2) | SMILES
> 3.00 |  | Clc1cccc(Cl)c1COc1ccc(N2CCOCC2)nc1 [Compound 54]
 | > 3.70 | CC(C)(C)C(=O)Nc1cnc(OCc2c(Cl)cccc2Cl)cn1 [Compound 167]
> 3.00 |  | CC(=O)Nc1ccc(Cl)c(COc2cccnc2)c1 [Compound 43]
 | > 4.70 | Clc1cccc(Cl)c1COc1cnc(NCc2ccccc2)cn1 [Compound 141, Benzyl-[5-(2,6-dichloro-benzyloxy)-pyrazin-2-yl]-amine]
> 3.70 |  | O=S(=O)(Nc1ccc(Cl)c(COc2cccnc2)c1)c1ccccc1 [Compound 55, N-(4-Chloro-3-(pyridin-3-yloxymethyl)-phenyl]-benzenesulfonamide]
 | > 3.00 | Nc1cccc(COc2cncc(Cl)n2)c1 [Compound 85]
> 3.00 |  | Nc1ncccc1OCc1c(F)cc(F)cc1F [Compound 32]
 | > 4.70 | O=C(Nc1ccc(F)c(COc2cnccn2)c1)c1ccc(=O)n(Cc2ccccc2)c1 [Compound 147, 1-Benzyl-6-oxo-1,6-dihydro-pyridine-3-carboxylic acid [4-fluoro-3-(pyrazin-2-yloxymethyl)-phenyl]-amide]
> 3.00 |  | Cc1cccc(COc2cccnc2N)c1F [Compound 28]
 | > 5.70 | O=C(Nc1ccc(F)c(COc2cnccn2)c1)Nc1cc(-c2ccc(Cl)cc2)nn1-c1ccccc1 [Compound 128, 1-[5-(4-Chloro-phenyl)-2-phenyl-2H-pyrazol-3-yl]-3-[4-fluoro-3-(pyrazin-2-yloxymethyl)-phenyl]-urea]
 | > 5.70 | O=C(Nc1ccc(F)c(COc2cnccn2)c1)c1cccc(Oc2ccccc2)c1 [Compound 102, N-[4-Fluoro-3-(pyrazin-2-yloxymethyl)-phenyl]-3-phenoxy-benzamide]
 | > 5.70 | O=C(Nc1ccc(F)c(COc2cnccn2)c1)Nc1cc(-c2ccccc2)[nH]n1 [Compound 118, 1-[4-Fluoro-3-(pyrazin-2-yloxymethyl)-phenyl]-3-(5-phenyl-1H-pyrazol-3-yl)-urea]
> 3.00 |  | Nc1ncccc1OCc1ccc(F)cc1Cl [Compound 31]
 | > 3.70 | Clc1cccc(Cl)c1COc1cnc(N2CCOCC2)cn1 [Compound 152, 4-[5-(2,6-Dichloro-benzyloxy)-pyrazin-2-yl]-morpholine]
> 3.00 |  | Nc1ncccc1OCc1c(F)cccc1Cl [Compound 22]
 | > 3.00 | Nc1nccnc1OCc1c(Cl)cccc1Cl [Compound 90]
> 2.00 |  | Nc1ncccc1OCc1cccc(OC(F)(F)F)c1 [Compound 24]
 | > 4.70 | CC(C)(C)c1ccc(C(=O)Nc2ccc(F)c(COc3cnccn3)c2)cc1 [Compound 101, 4-tert-Butyl-N-[4-fluoro-3-(pyrazin-2-yloxymethyl)-phenyl]-benzamide]
> 5.70 |  | CC(C)(C)c1cccc(C(=O)Nc2ccc(Cl)c(COc3cccnc3)c2)c1 [Compound 65, 3-tert-Butyl-N-[4-chloro-3-(pyridin-3-yloxymethyl)-phenyl]-benzamide]
 | > 3.00 | CN1CCCC(CNC(=O)c2cnc(OCc3c(Cl)cccc3Cl)cn2)C1 (stereo not drawn) [Compound 162]
 | > 5.70 | O=C(Nc1ccc(F)c(COc2cnccn2)c1)Nc1nnc(C2CCCO2)s1 (stereo not drawn) [Compound 140, 1-[4-Fluoro-3-(pyrazin-2-yloxymethyl)-phenyl]-3-[5-(tetrahydro-furan-2-yl)-[1,3,4]thiadiazol-2-yl]-urea]
> 3.70 |  | O=C(Nc1ccc(Cl)c(COc2cccnc2)c1)c1ccncc1 [Compound 53, N-[4-Chloro-3-(pyridin-3-yloxymethyl)-phenyl]-isonicotinamide]
 | > 3.00 | NS(=O)(=O)CCNC(=O)c1cnc(OCc2c(Cl)cccc2Cl)cn1 [Compound 138, 5-(2,6-dichloro-benzyloxy)-pyrazine-2-carboxylic acid (2-sulfamoyl-ethyl)-amide]
 | > 3.70 | O=C(Nc1ccc(F)c(COc2cnccn2)c1)c1ccc(-c2ccccc2)cc1 [Compound 133, Biphenyl-4-carboxylic acid [4-fluoro-3-(pyrazin-2-yloxymethyl)-phenyl]-amide]
> 4.70 |  | O=C(Nc1cccc(COc2cccnc2)c1)c1cc(F)cc(N2CCOCC2)c1 [Compound 67, 3-Fluoro-5-morpholin-4-yl-N-[3-(pyridin-3-yloxymethyl)-phenyl]-benzamide]
